From patent publication US12428413B2 (CHDI Foundation, Inc., priority 2019, dated 2025)
Structures can show the parent of a compound that is named as a salt. Where two headings read alike, the source gives them in different places.

Key:
[1] = tested on: cellular ROCK activity (cofilin phosphorylation at Ser3) in A7r5 rat smooth muscle cells; experiment: Cellular ROCK activity: cofilin (Ser3) phosphorylation, In-Cell Western assay; format: cell-based; conditions: Rattus norvegicus, 1 hour compound incubation, phospho-cofilin (Ser3), read-out: CELL_IC50
Summary of the method: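 A7r5 rat smooth muscle cells (3000/well, overnight) exposed to compound for 1 h at 37° C., then formaldehyde-fixed. Phospho-cofilin Ser3 detected by In-Cell Western with 800CW secondary antibody, read at 700 and 800 nm on an Odyssey imager.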

[2] = target: human catalytic domain ROCK II protein (amino acids 5-554) with a N-terminal GST tag (Homo sapiens, UniProt O75116); experiment: biochemical
Chain of human catalytic domain ROCK II protein (amino acids 5-554) with a N-terminal GST tag (O75116 5-554): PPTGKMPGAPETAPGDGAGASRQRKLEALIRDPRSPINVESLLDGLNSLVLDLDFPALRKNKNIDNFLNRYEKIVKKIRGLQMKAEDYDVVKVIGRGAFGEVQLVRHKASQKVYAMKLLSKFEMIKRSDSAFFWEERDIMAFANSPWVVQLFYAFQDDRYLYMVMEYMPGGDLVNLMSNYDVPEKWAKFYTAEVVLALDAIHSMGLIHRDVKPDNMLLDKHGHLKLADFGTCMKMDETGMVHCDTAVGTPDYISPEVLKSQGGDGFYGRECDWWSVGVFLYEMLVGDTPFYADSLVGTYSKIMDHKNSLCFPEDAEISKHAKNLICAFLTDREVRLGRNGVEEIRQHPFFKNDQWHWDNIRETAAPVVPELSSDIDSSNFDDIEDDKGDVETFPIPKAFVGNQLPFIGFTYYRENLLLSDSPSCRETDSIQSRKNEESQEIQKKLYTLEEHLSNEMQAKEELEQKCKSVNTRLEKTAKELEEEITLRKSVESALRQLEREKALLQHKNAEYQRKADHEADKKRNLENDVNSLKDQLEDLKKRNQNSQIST

Row | IC50 ([1]; A7R5, 1 h) | IC50 [2] | Compound | IC50 [1]
1 | 1270 nM | 297 nM | Cc1cnc2cccc([C@H](C)NC(=O)N3CCN(c4ccncc4F)C[C@H]3C)n12 [Example 66, (R)-4-(3-Fluoropyridin-4-yl)-2-methyl-N—((S)-1-(3-methylimidazo[1,2-a]pyridin-5-yl)ethyl)piperazine-1-carboxamide] | –
2 | 243 nM | 10.1 nM | C[C@@H]1CN(c2ccncc2F)CCN1C(=O)N[C@H](C)c1cccc2c1OC(F)(F)O2 [Example 67, (R)—N—((R)-1-(2,2-Difluorobenzo[d][1,3]dioxol-4-yl)ethyl)-4-(3-fluoropyridin-4-yl)-2-methylpiperazine-1-carboxamide] | –
3 | 17 nM | 4.2 nM | C[C@@H]1CN(c2ccncc2F)CCN1C(=O)N[C@H](C)c1cccc2c1OCO2 [Example 68, (R)—N—((R)-1-(Benzo[d][1,3]dioxol-4-yl)ethyl)-4-(3-fluoropyridin-4-yl)-2-methylpiperazine-1-carboxamide] | –
4 | 1.6 nM | 3.1 nM | C[C@@H]1CN(c2ccncc2F)CCN1C(=O)N[C@H](C)c1cccc2nn(C)cc12 [Example 71, (R)-4-(3-Fluoropyridin-4-yl)-2-methyl-N—((R)-1-(2-methyl-2H-indazol-4-yl)ethyl)piperazine-1-carboxamide] | –
5 | 1420 nM | 227 nM | C[C@@H]1CN(c2ccncc2F)CCN1C(=O)OCc1cccc2nccn12 [Example 73, Imidazo[1,2-a]pyridin-5-ylmethyl (R)-4-(3-fluoropyridin-4-yl)-2-methylpiperazine-1-carboxylate] | –
6 | 978 nM | 56.8 nM | C[C@@H]1CN(c2ccncc2F)CCN1C(=O)NCc1cccc2c1OC(F)(F)O2 [Example 74, (R)—N-((2,2-Difluorobenzo[d][1,3]dioxol-4-yl)methyl)-4-(3-fluoropyridin-4-yl)-2-methylpiperazine-1-carboxamide Hemiformate] | –
7 | 191 nM | 7.6 nM | C[C@@H]1CN(c2ccncc2F)CCN1C(=O)NCc1cccc2c1OCCO2 [Example 77, (R)—N-((2,3-Dihydrobenzo[b][1,4]dioxin-5-yl)methyl)-4-(3-fluoropyridin-4-yl)-2-methylpiperazine-1-carboxamide formate] | –
8 | 34.3 nM | 4.2 nM | C[C@@H]1CN(c2ccncc2F)CCN1C(=O)NCc1cccc2nn(C)cc12 [Example 78, (R)-4-(3-Fluoropyridin-4-yl)-2-methyl-N-((2-methyl-2H-indazol-4-yl)methyl)piperazine-1-carboxamide] | –
9 | 8.1 nM | 3.7 nM | [2H]C([2H])([2H])Oc1cccc([C@H](NC(=O)N2CCN(c3ccncc3F)C[C@H]2C)C([2H])([2H])[2H])c1 [Example 81, (R)-4-(3-Fluoropyridin-4-yl)-N—((R)-1-(3-(methoxy-d3)phenyl)ethyl-2,2,2-d3)-2-methylpiperazine-1-carboxamide] | –
10 | 9.1 nM | 2.8 nM | [2H]C([2H])([2H])Oc1cccc([C@@H](C)NC(=O)N2CCN(c3ccncc3F)C[C@H]2C)c1 [Example 82, (R)-4-(3-Fluoropyridin-4-yl)-N—((R)-1-(3-(methoxy-d3)phenyl)ethyl)-2-methylpiperazine-1-carboxamide] | –
11 | ≥ 5000 nM | 3210 nM | COc1cccc(CN2C[C@@H]3CN(c4ccncc4F)CCN3C2=O)c1 [Example 86, (S)-7-(3-Fluoropyridin-4-yl)-2-(3-methoxybenzyl)hexahydroimidazo[1,5-a]pyrazin-3(2H)-one] | –
12 | ≥ 5000 nM | 1490 nM | COc1cccc(CN2C[C@H]3CN(c4ccncc4F)CCN3C2=O)c1 [Example 87, (R)-7-(3-Fluoropyridin-4-yl)-2-(3-methoxybenzyl)hexahydroimidazo[1,5-a]pyrazin-3(2H)-one] | –
13 | 3800 nM | 362 nM | COc1cccc(CN2CC[C@H]3CN(c4ccncc4F)CCN3C2=O)c1 [Example 88, (S)-2-(3-Fluoropyridin-4-yl)-7-(3-methoxybenzyl)octahydro-6H-pyrazino[1,2-c]pyrimidin-6-one] | –
14 | 1150 nM | 55.1 nM | COc1cccc(CN2CC[C@@H]3CN(c4ccncc4F)CCN3C2=O)c1 [Example 89, (R)-2-(3-Fluoropyridin-4-yl)-7-(3-methoxybenzyl)octahydro-6H-pyrazino[1,2-c]pyrimidin-6-one] | –
15 | 62 nM | 4.8 nM | COc1cccc([C@@H](C)NC(=O)N2CCN(c3ccncc3F)[C@@H](C)C2)c1 [Example 90, (S)-4-(3-Fluoropyridin-4-yl)-N—((R)-1-(3-methoxyphenyl)ethyl)-3-methylpiperazine-1-carboxamide] | –
16 | 783 nM | 150 nM | COc1cccc([C@@H](C)NC(=O)N2CCN(c3ccncc3F)[C@H](C)C2)c1 [Example 91, (R)-4-(3-Fluoropyridin-4-yl)-N—((R)-1-(3-methoxyphenyl)ethyl)-3-methylpiperazine-1-carboxamide] | –
17 | 1160 nM | 38.3 nM | COc1cccc(CNC(=O)N2[C@H](C)CN(c3ccncc3F)C[C@H]2C)c1 [Example 95, (2R,6R)-4-(3-Fluoropyridin-4-yl)-N-(3-methoxybenzyl)-2,6-dimethylpiperazine-1-carboxamide] | –
18 | 34.7 nM | 6.5 nM | C[C@@H]1CN(c2ccncc2F)C[C@@H](C)N1C(=O)N[C@H](C)c1cccc2c1CCO2 [Example 96, (2R,6R)—N—((R)-1-(2,3-Dihydrobenzofuran-4-yl)ethyl)-4-(3-fluoropyridin-4-yl)-2,6-dimethylpiperazine-1-carboxamide] | –
19 | 114 nM | 12 nM | COc1cccc([C@@H](C)NC(=O)N2[C@H](C)CN(c3ccncc3F)C[C@H]2C)c1 [Example 97, (2R,6R)-4-(3-Fluoropyridin-4-yl)-N—((R)-1-(3-methoxyphenyl)ethyl)-2,6-dimethylpiperazine-1-carboxamide Formate] | –
20 | ≥ 5000 nM | 3120 nM | COc1cccc([C@@H](C)NC(=O)N2C[C@@H]3C[C@H]2CN3c2ccncc2F)c1 [Example 99] | –
21 | 1620 nM | 184 nM | C[C@@H]1CN(c2ccnc(F)c2)CCN1C(=O)NCc1ccccc1Cl [Example 106] | –
22 | 1070 nM | 42.2 nM | COc1cccc(CNC(=O)N2CCN(c3ccnc(F)c3)C[C@H]2C)c1 [Example 107] | –

Row | IC50 ([1]; A7R5, 1 h) | IC50 [2] | Compound | IC50 [1]
23 | 1320 nM | 38.3 nM | COc1ccc(F)c([C@@H](C)NC(=O)N2CCN(c3ccnc(F)c3)C[C@H]2C)c1 [Example 112] | –
24 | 122 nM | 3.9 nM | C[C@@H]1CN(c2ccnc(F)c2)CCN1C(=O)N[C@H](C)c1cccc2occc12 [Example 113] | –
25 | 30.3 nM | 3.5 nM | C[C@@H]1CN(c2ccnc(F)c2)CCN1C(=O)N[C@H](C)c1cccc2c1CCO2 [Example 114] | –
26 | 138 nM | 8.1 nM | [2H]C([2H])([2H])Oc1cccc([C@@H](C)NC(=O)N2CCN(c3ccnc(F)c3)C[C@H]2C)c1 [Example 115] | –
27 | 127 nM | 6.9 nM | [2H]C([2H])([2H])Oc1cccc([C@H](NC(=O)N2CCN(c3ccnc(F)c3)C[C@H]2C)C([2H])([2H])[2H])c1 [Example 116] | –
28 | 711 nM | 16.2 nM | C[C@@H](NC(=O)N1CCN(c2ccnc(F)c2)[C@@H](C)C1)c1cccc2c1CCO2 [Example 118] | –
29 | 411 nM | 10 nM | C[C@@H](NC(=O)N1CCN(c2ccnc(F)c2)[C@@H](C)C1)c1cccc2occc12 [Example 119] | –
30 | 3970 nM | 59.5 nM | C[C@@H](NC(=O)N1CCN(c2ccnc(F)c2)[C@@H](C)C1)c1cccc(OC(F)F)c1 [Example 120] | –
31 | 1160 nM | 61.1 nM | C[C@@H](NC(=O)N1CCN(c2ccncc2F)CC1)c1ccccc1Cl [Example 124] | –
32 | 4310 nM | 1160 nM | COc1cccc([C@H](C)NC(=O)N2CCN(c3ccncc3F)CC2)c1Cl [Example 125] | –
33 | 924 nM | 60.9 nM | COc1ccc(F)c([C@@H](C)NC(=O)N2CCN(c3ccncc3F)CC2)c1 [Example 126] | –
34 | 428 nM | 24.2 nM | C[C@@H](NC(=O)N1CCN(c2ccncc2F)CC1)c1cccc(OC(F)F)c1 [Example 127] | –
35 | 3540 nM | 84.5 nM | O=C(NCc1cccc(OC(F)F)c1)N1CCN(c2ccncc2F)CC1 [Example 129] | –
36 | 1660 nM | 122 nM | O=C(NCc1ccccc1Cl)N1CCN(c2ccncc2F)CC1 [Example 130] | –
37 | 152 nM | 8 nM | [2H]C([2H])([2H])Oc1cccc([C@H](NC(=O)N2CCN(c3ccncc3F)CC2)C([2H])([2H])[2H])c1 [Example 131] | –
38 | 185 nM | 6.7 nM | [2H]C([2H])([2H])Oc1cccc([C@@H](C)NC(=O)N2CCN(c3ccncc3F)CC2)c1 [Example 132] | –
39 | 2440 nM | 167 nM | COc1cccc([C@@H](C)NC(=O)N2CCN(c3ccncc3F)C[C@@H]2C)c1 [Example 133] | –
40 | 108 nM | 6.6 nM | COc1ccc(F)c([C@@H](C)NC(=O)N2CCN(c3ccncc3F)C[C@H]2C)c1 [Example 134] | –
41 | 53.1 nM | 3.8 nM | C[C@@H]1CN(c2ccncc2F)CCN1C(=O)N[C@H](C)c1cccc(OC(F)F)c1 [Example 136] | –
42 | 79.8 nM | 4.8 nM | COc1cccc([C@@H](C)NC(=O)N2CCN(c3ccncc3F)CC2CO)c1 (stereo partly shown) [Example 137] | –
43 | 97.5 nM | 4.2 nM | COc1cccc(CNC(=O)N2CCN(c3ccncc3F)C[C@H]2C)c1 [Example 138] | –

Row | Compound | IC50 ([1]; A7R5, 1 h) | IC50 [2] | IC50 [1]
44 | COc1cccc([C@@H](C)NC(=O)N2CCN(c3ccncc3F)C(=O)C2)c1 [Example 100, (R)-4-(3-Fluoropyridin-4-yl)-N-(1-(3-methoxyphenyl)ethyl)-3-oxopiperazine-1-carboxamide] | – | 2120 nM | ≥ 5000 nM
